# According to article PMC3183052, “Immunoprotectivity of HLA-A2 CTL Peptides Derived from Respiratory Syncytial Virus Fusion Protein in HLA-A2 Transgenic Mouse” (PLoS ONE, 2011):
# Key:
# [1] = molecular target: T1, HLA-A*0201 (Homo sapiens, UniProt P04439, D140Y/D185E/D98H/E176V/E277Q/G131W/G231S/I119V/I121R/I166T/I218V/L300P/L318F/N151K/N90K/P208A/P217A/Q86G/Q94H/R138H/R169H/T345S); experiment: T2 cell-stabilization assay (T2-binding); settings: T2 cells 5×10^5, peptide 50 µg/mL + β2-microglobulin 5 µg/mL, 28°C 16–18 h, then brefeldin A 10 µg/mL 37°C 3 h; FITC anti-HLA-A2, flow cytometry; MFI relative to negative control HCV C55-74 (set as 1)
# T1 construct: Human T2 cells (purchased from the American Type Culture Collection, ATCC) (ATCC No. CRL-1992) expressing the HLA-A*0201 gene; endogenous in cells; host or cells: human T2 cells (ATCC CRL-1992)
# Summary of the method: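 T2 cells were pulsed with 9-mer peptides (50 µg/mL) plus β2-microglobulin (5 µg/mL) at 28°C for 16–18 hours, then brefeldin A (10 µg/mL) at 37°C for 3 hours. Surface HLA-A2 was stained with FITC anti-HLA-A2 and read by flow cytometry. Binding is MFI relative to T2 cells loaded with HCV peptide C55-74 (MFI = 1).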
# [2] = system: lung eosinophils; experiment: Eosinophil infiltration into the lungs (anti-MBP immunohistochemistry); assay type: in vivo, HLA-A*0201 transgenic C57BL/6 mice; settings: day 4 post RSV challenge; anti-MBP staining, 20 fields at 200×; six mice per group
# Source text: Whole lungs were excised from the mice, fixed in 10% formalin (Sigma-Aldrich) solution overnight and embedded in paraffin (Thermo Fisher Scientific) for sectioning. The sections were stained with rat monoclonal anti-major basic protein (MBP) antibody (1∶500 dilution, gifted from Dr. James J. Lee, Mayo Clinic, AZ, USA) followed by the appropriate secondary antibodies. Twenty-bright field microscopy pictures (Nikon DXM1200 CCD digital camera attached with ACT-1 imaging capture software) from each stained section were taken at 200× magnifications and the number of eosinophils was counted. The mean of eosinophil count from each section was calculated.
# Figure 6 Eosinophil infiltration into the lungs of peptide-immunized transgenic mice upon RSV challenge. Immunohistochemical analysis of lung sections with anti-major basic protein antibody specific for eosinophils followed by the HRP-conjugated anti-rat antibody was performed. (A) Pictures from the section of normal mouse lung (a), or vehicle- (b), peptide 3- (c), 13- (d), 14- (e) and 23- (f) immunized mouse lung section. (B) Quantitative representation of eosinophil count per section of peptide- or vehicle-immunized HLA-transgenic mice at day 4 post RSV challenge. Twenty bright field pictures from each lung mesenchymal region were examined and the number of eosinophils was counted under 200× magnification. […]
# [3] = system: CD4+CD25+ T cells; experiment: Infiltration of CD4+CD25+ T cells in the lungs after RSV challenge; assay type: in vivo, mouse; settings: mice pre-immunized with peptide and challenged with live RSV; unshown results
sequence,measurement,setting,value
"YMLTNSELL [peptide 14, HLA-A*0201-restricted 9-mer synthetic peptide from F protein of RSV-B1 strain]",T2-binding Ratio of MFI,[1],1.71
same,eosinophil numbers in the lungs vs vehicle-immunized mice,[2],comparable eosinophil numbers
same,infiltration of CD4+CD25+ T cells in the lungs,[3],increased infiltration
